# Assay results published in patent publication US11926826B2, “Twist signaling inhibitor compositions and methods of using the same” (City of Hope, priority 2016, dated 2024).
# pIC50: −log10 of the molar value.
# Tests used:
# Ovcar8-IP tumors = test: Ovcar8-IP intraperitoneal tumor model in NSG mice, MSN-siRNA with or without cisplatin; format: in vivo
# Description: Animal Studies. The animal studies conducted in these experiments were done in accordance with a protocol approved by the Institutional Animal Care and Use Committee at the City of Hope Beckman Research Institute. A total of 48 female NOD.Cg-Prkdc^scidIl2rg^tm1Wj1/SzJ (NSG) mice (The Jackson Laboratory, Bar Harbor, ME) were used. Ten week old (on average) mice were administered an intraperitoneal injection (IP) of 2.5×10^6 Ovcar8-IP cells in 200 μl of RPMI media. For all studies, mice were placed into four groups: MSN-siQ, MSN-siQ+cisplatin, MSN-si419H, and MSN-si419H+cisplatin (n=4 or n=8). Previous reports show no cellular uptake without MSNs^14, thus a siRNA-only group was not added to this study.
# Bioluminescent imaging of mice (using Xenogen IVIS 100 biophotonic imaging system, STTARR, Toronto, Ontario, Canada) commenced seven days after injection of tumor cells in order to ensure engraftment, and continued once a week for four weeks. Mice were given a 100 μl IP injection of 20 mg/ml D-Luciferin (PerkinElmer, Waltham, MA). Ten minutes after the D-luciferin injection, mice were anesthetized with isoflurane (2%-5%) and placed in the biophotonic imager, and images were taken within two minutes. An alfalfa-free version of the regular rodent diet (alfalfa-free CA-1) was administered to the siQ mice to prevent autofluorescence from the regular diet.
# IP injections of MSN+siRNA (siQ fluorescently labeled with ALEXAFLUOR® 647 or si419H) were conducted one week after the inoculation of Ovcar8-IP cells and done once or twice per week for a total of four weeks. Mice received 105 μl of 500 ng/μl MSN complexed with 15 μl of 10 μM siRNA per week, divided into one full or two half doses (n=4 and n=8, respectively). This is equivalent to […] MSN/week. Weekly 3 mg/kg IP cisplatin injections were given starting two weeks after initial inoculation of cells.
# At completion of the experiment, all animals were euthanized via CO2 asphyxiation. […]
# Statistics. All in vivo data was analyzed using one-way ANOVA with correction for multiple comparisons, comparing all groups to MSN-siQ treatment group. […]
# TWIST1 = test: Western blotting of TWIST1 during cisplatin exposure; format: cell-based, human; conditions: Ov8GFP-TWIST1 cells; 5 μM cisplatin over 24 hr
# Description: (§1) Western blotting. Cells were pelleted and washed once with phosphate buffered saline (PBS), then lysed in RIPA buffer. Protein concentration was determined using a BCA assay (Thermo Fisher). Equal masses of protein were run on 4% stacking, 10% resolving polyacrylamide gels, and then transferred to PVDF membrane (GE Healthcare Bio-Sciences, Pittsburgh, PA) using the Trans-Blot SD Semi-Dry Transfer Cell (Bio-Rad). Membranes were blocked in dry milk dissolved in PBS with shaking for 1 hr at room temperature or overnight at 4° C. 3% BSA was used for blocking prior to select pAkt blots to reduce background signal. Primary and secondary antibodies were diluted as indicated below in 5% dry milk in PBS with 0.1-0.2% Tween-20. Incubation was performed at room temperature for one hr or overnight at 4° C. for primary, and at room temperature for one hr for secondary. Each antibody incubation was followed by five 5 min washes in PBS with 0.1% Tween-20. FemtoGlow HRP substrate (Michigan Diagnostics, Royal Oak, MI) and the Pxi4 chemiluminescent imager (Syngene, Frederick, MD) were used to acquire digital images. ECL 2 (Thermo Fisher) and Blue Devil Film (Genesee Scientific) were used to acquire film images. […] For select digital and film westerns, bands were quantified using GeneTools software from Syngene or Image Studio Lite from LiCor (Lincoln, NB), respectively, and normalized to β-Actin.
# A2780R cells = test: Sulphorhodamine B cell survival assay with cisplatin, A2780R; format: cell-based; conditions: without YTZ3-15-si494 treatment
# Description: Sulphorhodamine B Cell Survival Assays. A2780R or Ovcar8-IP cells were plated in 6 well plates and allowed to adhere overnight. The following day, cells were transfected with siQ, si419, or si494 as described above—A2780R cells using YTZ3-15 and Ovcar8-IP cells using MSNs. After 48-72 hours, cells were transferred to 96 well plates at 5,000 cells per well and allowed to adhere overnight. The following day cells were treated with cisplatin at a series of concentrations (cells not treated with cisplatin served as controls). After 72 hours, cells were fixed in 10% trichloroacetic acid for 1 hour at 4° C., washed with water, and dried. Cells were stained in 0.4% sulphorhodamine B (SRB) in 1% acetic acid for 15 minutes at room temperature and then washed 3-4 times with 1% acetic acid until no further color was present in the wash. Any stray SRB on the walls of the wells was removed, and stained cells were dried for 10 minutes. SRB was solubilized in 10 mM Tris base and color intensity was quantified by absorbance at 570 nm. Each condition was normalized to its own untreated control.
# Phospho Akt (Ser473) = test: Western blotting of Akt phosphorylated at Ser 473 during cisplatin exposure; format: cell-based, human; conditions: 24 hr
# Description: as §1
# Akt = test: Western blotting of total Akt during cisplatin exposure; format: cell-based, human
# Description: as §1
compound,measurement,setting,value
N.N.[Cl][Pt][Cl] [cisplatin],reduction of metastasis incidence (number of disseminated masses),Ovcar8-IP tumors; FIG. 21B,approximately 50%
same,proportion of mice developing ascites,Ovcar8-IP tumors; n=4 per group,2/4
same,increase in TWIST1 expression,TWIST1,up to 2.3 fold
same,pIC50,A2780R cells,~3.70
same,increase in proportion of Akt phosphorylated at Ser 473,"Phospho Akt (Ser473); Ov8GFP-TWIST1 cells, siQ, 5 μM cisplatin, normalized to total Akt",128%
same,reduction in phosphorylated Akt,"Phospho Akt (Ser473); Ov8GFP-sh492 cells, cisplatin",63%
same,increase in Akt levels,"Akt; Ov8GFP-TWIST1 cells, siQ, 5 μM cisplatin over 24 hr",150%
same,total Akt levels,"Akt; Ov8GFP-sh492 cells, cisplatin over 24 hr",relatively constant
